According to patent US20200239398A1, “METHYLENE-CYCLOALKYLACETATE DERIVATIVES AND THEIR USE IN TREATMENT OF NEUROTROPIC CONDITIONS” (Yissum Research Development Company of The Hebrew …, priority 2018, published 2020):
Like-named read-outs stand apart in the source and are kept apart here.

Key:
[1] = tested on: Gamma-aminobutyric acid Receptor A (GABAA); assay type: cell-based; conditions: 10 μM HU-MCA-13
[2] = biological target: Adrenergic Receptor β1 (ADRB1) (Homo sapiens, UniProt P08588); test: SAFETYscan ADRB1 cAMP; assay type: cell-based; conditions: 10 μM HU-MCA-13, read-out: Maximal Response
[3] = biological target: T1, Kv7.1/KCNE Potassium voltage-gated channel (KvLQT1/minK) (Homo sapiens, UniProt P51787); test: SAFETYscan KvLQT1/minK Ion channel; assay type: cell-based; conditions: 10 μM HU-MCA-13, read-out: Maximal Response
T1 construct: DiscoverX (SAFETYscan contract panel)

PC12 cells = test: PC12 cell neurotropic assay (neurite outgrowth); assay type: cell-based, rat; conditions: 10 μM
Description: PC12 cells were grown in T-200 flasks in high glucose (4.5 gr/L) DMEM medium supplemented with 7% FCS, 7% horse serum and 1% penicillin and streptomycin. Cells were incubated at 37° C. in a humidified incubator containing 6% CO2. All experiments were carried out in a clean room, according to ISO7 requirements (10,000 particles/m^3).
Tissue culture Falcon plates were coated with 200 μg/ml collagen type 1 and placed under UV light for 30 minutes for sterilization. Thereafter, one ml of PC12 cell suspension (5000 cells/well) was applied in 12 or 24 well plate, respectively. The cultures were grown in the incubator two days before exposure to investigated compound.
This experimental procedure contained two controls. The first consisted of untreated cells (negative control), representing the random effect: “noise signal”—the ability of cells to spontaneously grow neurite outgrowth which in seven days are of a length less than two-fold cell diameter. Also, negative controls consisted of cultures treated with 1% DMSO, solvent used to solubilize all compounds. The positive control consisted of cells treated with 50 ng/ml NGF, indicating maximal neurite outgrowth that can be achieved in this model. The experimental group consisted of PC12 cells treated with synthetic compounds. In each experiment, after two and seven days, six cultures were evaluated for neurotropic effect. These consecutive observations allow measurement of the progress of neurite outgrowth elongation and the percentage of cells with neurites.^31
In order to assess neurotropic effect, the neurite outgrowth length in each culture was quantified. For this purpose, each culture was placed under an inverted microscope and photographed by the attached camera. Each well was photographed at three to five representative areas. After acquiring the photos, they were analyzed by ImageJ, NIH software. The neurite outgrowth was estimated by fractal dimension (Df), a statistical parameter that describes the fractional space (area and length) filled by neurite outgrowth. Df ranged from 0 to 1.20. This method estimates the amount of picsel covered by neurites/cells compared to empty space per square field, and therefore plotting log (number of square boxes) vs. log (size in pixels) relationship generates a linear curve with Df representing the slope of the curve. Every photograph that was taken, was opened in a Photoshop software and a new layer was generated on it. Using a 5-pixel wide digital pencil tool, all the outgrowths were marked and the layer with the markers (outgrowth network) was saved in a 0-255 gray scale as described in FIG. 2. Then, the saved layer was opened by ImageJ NIH software. The software “skeletonized” the layer, measured the length and complexity of every outgrowth in a fractal box count and calculated the fractional dimension parameter (Df).^32
Each experiment was performed in duplicates and repeated three to four times (n=6-8). By using SPSS software, one way ANOVA was performed for the fractional dimension of each compound, in order to evaluate the neurotropic effect. In case of significance, Bonferroni post-hoc analysis was performed. The results were considered significant when p<0.05.

[4] = biological target: T2, 5-Hydroxytryptamine (Serotonin) Receptor 3A (HTR3A) (Homo sapiens, UniProt P46098); test: SAFETYscan HTR3A Ion channel; assay type: cell-based; conditions: 10 μM HU-MCA-13, read-out: Maximal Response
T2 construct: DiscoverX (SAFETYscan contract panel)
T2 sequence (P46098 24-478): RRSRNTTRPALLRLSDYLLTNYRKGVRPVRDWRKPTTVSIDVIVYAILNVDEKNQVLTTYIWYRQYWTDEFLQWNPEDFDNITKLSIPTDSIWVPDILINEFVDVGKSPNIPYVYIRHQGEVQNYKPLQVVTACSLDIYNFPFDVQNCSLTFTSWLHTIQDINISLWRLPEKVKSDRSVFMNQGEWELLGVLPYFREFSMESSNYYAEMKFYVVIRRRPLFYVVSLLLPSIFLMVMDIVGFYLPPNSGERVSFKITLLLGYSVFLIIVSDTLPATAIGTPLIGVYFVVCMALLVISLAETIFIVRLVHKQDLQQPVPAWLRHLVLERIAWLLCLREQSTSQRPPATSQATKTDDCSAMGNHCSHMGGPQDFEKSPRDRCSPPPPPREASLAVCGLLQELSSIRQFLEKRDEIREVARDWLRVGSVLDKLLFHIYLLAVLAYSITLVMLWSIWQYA

Chain of Adrenergic Receptor β1 (ADRB1) (P08588 whole entry): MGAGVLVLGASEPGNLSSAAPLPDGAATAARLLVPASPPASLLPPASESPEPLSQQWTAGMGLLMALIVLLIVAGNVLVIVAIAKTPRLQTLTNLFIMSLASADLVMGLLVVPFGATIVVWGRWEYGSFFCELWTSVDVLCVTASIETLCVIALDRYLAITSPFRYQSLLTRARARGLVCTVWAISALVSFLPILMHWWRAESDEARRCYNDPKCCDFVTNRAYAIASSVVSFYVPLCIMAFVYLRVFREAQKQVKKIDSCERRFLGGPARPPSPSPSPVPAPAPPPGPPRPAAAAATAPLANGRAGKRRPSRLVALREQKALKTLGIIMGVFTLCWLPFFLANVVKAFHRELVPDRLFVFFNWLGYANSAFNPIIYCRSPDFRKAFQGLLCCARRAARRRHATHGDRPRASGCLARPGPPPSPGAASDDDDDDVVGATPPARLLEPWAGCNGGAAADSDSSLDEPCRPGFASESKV

C=CCC1CCC[C@@H](CCC(=O)O)C1=C (some centres unmarked) [Compound 13]
Maximal Response ([1]; Blocker mode): 7.74%
Maximal Response ([1]; Opener mode): 3.68%
Emax ([2]; Agonist mode): 1.92%
Emax ([2]; Antagonist mode): 9.29%
Emax ([3]; Blocker mode): 0.55%
Emax ([3]; Opener mode): 0%
Neurotropic effect (mean ± SE) Seven Days Df (PC12 cells; PC12 cells, seven days of treatment, Df = fractal dimension of neurite outgrowth): 0.45 ± 0.01
Neurotropic effect (mean ± SE) Two Days Df (PC12 cells; PC12 cells, two days of treatment, Df = fractal dimension of neurite outgrowth): 0.39 ± 0.01
Neurotropic effect Seven Days NGF (%) (PC12 cells; seven days, relative to NGF 50 ng/ml): 97.8%
Neurotropic effect Two Days NGF (%) (PC12 cells; two days, relative to NGF 50 ng/ml): 84.8%
neurotropic activity (in words) (PC12 cells; after seven days of treatment): significant neurotropic activity
inducing fast neurite outgrowth (in words) (PC12 cells; after two days of treatment): most active
Emax ([4]; Blocker mode): 0.19%
Emax ([4]; Opener mode): 0%
